Measured values from patent US20230219942A1, “COMPOUNDS COMPRISING A THREE RING CORE AS PD-1/PD-L1 BLOCKERS” (RELIVE THERAPEUTICS INC., priority 2020, published 2023).
Like-named read-outs stand apart in the source and are kept apart here.

Target: T1, PD-1/PD-L1 interaction (Homo sapiens, UniProt Q9NZQ7)
T1 construct: Tag1 or Tag2 (undisclosed kit tag); purchased Cisbio
Assay: Cisbio PD-1/PD-L1 Homogeneous Time-Resolved Fluorescence (HTRF) binding assay
Details: read-out: Reported IC50
Description: The ability of compounds of the disclosure to inhibit the PD-1/PD-L1 interaction was investigated using a Cisbio PD-1/PD-L1 Homogeneous Time-Resolved Fluorescence (HTRF) binding assay (https://ca.cisbio.net/human-pd1-pd-l1-biochemical-binding-assay-44666).
With the assay, the interaction between PD-L1 and PD-1 is detected by using anti-Tag1 labeled with Europium (HTRF donor) and anti-Tag2 labeled with XL665 (HTRF acceptor). When the donor and acceptor antibodies are brought into close proximity due to PD-L1 and PD-1 binding, excitation of the donor antibody triggers fluorescence resonance energy transfer (FRET) towards the acceptor antibody, which in turn emits specifically at 665 nm. This specific signal is directly proportional to the extent of PD-1/PD-L1 interaction. Thus, a compound blocking the PD-1/PD-L1 interaction causes a reduction in the HTRF signal.
The assay was carried out in accordance with the product insert.

[1] = Table 10, * n = 7, median, P1 and P2 are different isomers
[2] = Table 10, same result in μM, P1 and P2 are different isomers

T1 sequence (Q9NZQ7 19-238 limits assumed): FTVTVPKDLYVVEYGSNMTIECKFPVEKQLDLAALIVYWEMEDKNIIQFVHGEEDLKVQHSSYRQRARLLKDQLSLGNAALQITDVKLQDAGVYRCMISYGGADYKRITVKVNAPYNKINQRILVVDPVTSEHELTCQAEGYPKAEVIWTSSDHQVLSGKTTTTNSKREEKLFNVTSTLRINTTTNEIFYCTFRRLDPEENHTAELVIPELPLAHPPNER

Compound	IC50 (Table 9) [µM]	IC50 (Table 9, same result in μM) [µM]	also measured
O=C(CCc1nc2ccccc2[nH]1)N1CCN(Cc2csc(NCC3CC(OCc4ccccc4)CN3Cc3ccc(Br)cc3)n2)CC1 (stereo not drawn) [Compound 2678-78]			IC50 (Table 8, Run: Pure): 1.6 µM
COc1ccc(C(=O)N2CCN(Cc3csc(NC[C@@H]4CCCN4Cc4ccc(Br)cc4)n3)CC2)cc1OC [Compound A402]	0.62	0.62	
COc1ccc(C(=O)N2CCN(Cc3csc(NC[C@@H]4CCCN4Cc4ccc(Br)cc4)n3)CC2)cc1 [Compound A401]	1.2	1.2	
Cn1cc(C(=O)N2CCN(Cc3nsc(NC[C@@H]4CCCN4Cc4ccc(Br)cc4)n3)CC2)ccc1=O [Compound B415]			IC50 [1]: 0.216 µM; IC50 [2]: 0.22 µM
COc1cc(C(=O)N2CCN(Cc3nsc(NC[C@@H]4C[C@@H](O)CN4Cc4ccc(Br)cc4)n3)CC2)cc(OC)c1OC [Compound B802]			IC50 [1]: 0.012 µM; IC50 [2]: 0.012 µM
CC(=O)N1CCN(Cc2csc(NC[C@@H]3CCCN3Cc3ccc(Br)cc3)n2)CC1 [Compound A503]	2.6	0.26	
O=C(c1ccc(Cl)cc1)N1CCN(Cc2nsc(NC[C@@H]3CCCN3Cc3ccc(Br)cc3)n2)CC1 [Compound B411]			IC50 [1]: 1.02 µM; IC50 [2]: 1 µM
O=C(c1ccc(=O)[nH]c1)N1CCN(Cc2nsc(NC[C@@H]3CCCN3Cc3ccc(Br)cc3)n2)CC1 [Compound B413]			IC50 [1]: 0.44 µM; IC50 [2]: 0.44 µM
COc1cc(C(=O)N2CCN(Cc3csc(NC[C@@H]4CCCN4Cc4ccccc4Br)n3)CC2)cc(OC)c1OC [Compound A306]	40	40	
O=C(C1CC1)N1CCN(Cc2csc(NC[C@@H]3CCCN3Cc3ccc(Br)cc3)n2)CC1 [Compound A504]	2	2	
O=C(c1ccco1)N1CCN(Cc2csc(NC[C@@H]3CCCN3Cc3ccc(Br)cc3)n2)CC1 [Compound 2678-66]			IC50 (Table 8, Run: Pure): 0.87 µM
COc1cc(C(=O)N2CCN(Cc3csc(N(C)C[C@@H]4CCCN4Cc4ccc(Br)cc4)n3)CC2)cc(OC)c1OC [Compound A606]	> 50	> 50	
COc1ccc(CN2CCC[C@H]2CNc2nc(CN3CCN(C(=O)c4cc(OC)c(OC)c(OC)c4)CC3)cs2)cc1 [Compound A307]	9.2	9.2	
COc1cccc(C(=O)N2CCN(Cc3csc(NC[C@@H]4CCCN4Cc4ccc(Br)cc4)n3)CC2)c1 [Compound A403]	0.53	0.53	
O=C(c1ccc(=O)[nH]c1)N1CCN(Cc2csc(NC[C@@H]3CCCN3Cc3ccc(Br)cc3)n2)CC1 [Compound A405]	0.247	0.25	
COc1cc(C(=O)C2CCN(Cc3csc(NC[C@@H]4CCCN4Cc4ccc(Br)cc4)n3)CC2)cc(OC)c1OC [Compound A703]	0.109	0.11	
COc1ccc(CN2CCC[C@H]2CNc2nc(CN3CCN(C(=O)CCc4nc5ccccc5[nH]4)CC3)cs2)cc1OC [Compound 2678-5]			IC50 (Table 8, Run: Pure): 9.2 µM
COc1cc(C(=O)N2CCN(Cc3csc(NC[C@H]4CCCN4Cc4ccc(Br)cc4)n3)CC2)cc(OC)c1OC [Compound A706]	13	13	
COc1ccc(CN2CCC[C@H]2CNc2nc(CN3CCN(C(=O)c4cnc(C)cn4)CC3)cs2)cc1OC [Compound 2678-53]			IC50 (Table 8, Run: Pure): 53 µM
Cc1ccc(C(=O)N2CCN(Cc3nsc(NC[C@@H]4CCCN4Cc4ccc(Br)cc4)n3)CC2)cc1 [Compound B409]			IC50 [1]: 0.65 µM; IC50 [2]: 0.65 µM
COc1cc(C(=O)N2C[C@@H](C)N(Cc3csc(NC[C@@H]4CCCN4Cc4ccc(Br)cc4)n3)C[C@H]2C)cc(OC)c1OC [Compound A608]	1.6	1.6	
O=C(Cc1ccccc1)N1CCN(Cc2csc(NC[C@@H]3CCCN3Cc3ccc(Br)cc3)n2)CC1 [Compound 2463-262]			IC50 (Table 8, Run: Crude): 3.1 µM
O=C(CCc1nc2ccccc2[nH]1)N1CCN(Cc2csc(NC[C@@H]3CCCN3Cc3ccc(Br)cc3)n2)CC1 [Compound 2678-2]			IC50 (Table 8, Run: Pure): 1.9 µM
COc1cc(C(=O)N2CCN(Cc3csc(NC[C@@H]4CCCN4Cc4cccc(Br)c4)n3)CC2)cc(OC)c1OC [Compound A305]	36	36	
CC(Oc1ccccc1)C(=O)N1CCN(Cc2csc(NC[C@@H]3CCCN3Cc3ccc(Br)cc3)n2)CC1 (stereo partly drawn) [Compound 2678-58]			IC50 (Table 8, Run: Pure): 0.8 µM

Compound	IC50 (Table 9) [µM]	IC50 (Table 9, same result in μM) [µM]	also measured
Cc1cnc(C(=O)N2CCN(Cc3csc(NC[C@@H]4CCCN4Cc4ccc(F)cc4)n3)CC2)cn1 [Compound 2678-51]			IC50 (Table 8, Run: Pure): 8.7 µM
Cn1ncc2cc(C(=O)N3CCN(Cc4csc(NC[C@@H]5CCCN5Cc5ccc(Br)cc5)n4)CC3)ccc21 [Compound A407]	0.49	0.49	
O=C(c1ccc2c(c1)OCO2)N1CCN(Cc2csc(NC[C@@H]3CCCN3Cc3ccc(Br)cc3)n2)CC1 [Compound A404]	0.88	0.88	
COc1cc(C(=O)N2CCN(Cc3nsc(NC[C@@H]4CCCCN4Cc4ccc(Br)cc4)n3)CC2)cc(OC)c1OC [Compound B710]			IC50 [1]: 0.096 µM; IC50 [2]: 0.096 µM
COc1cc(C(=O)N2CCN(Cc3csc(NC[C@@H]4C[C@@H](O)CN4Cc4ccc(Br)cc4)n3)CC2)cc(OC)c1OC [Compound A704]	0.089	0.089	
COc1cc(C(=O)N2CCN(Cc3csc(NC[C@@H]4C[C@@H](OC)CN4Cc4ccc(Br)cc4)n3)CC2)cc(OC)c1OC [Compound A705]	0.171	0.17	
COc1cc(C(=O)N2CCN(Cc3csc(NC[C@@H]4CCCN4Cc4ccc(C)cc4)n3)CC2)cc(OC)c1OC [Compound A304]	3.5	3.5	
COc1cc(C(=O)N2CCN(Cc3nsc(NC[C@@H]4CCCN4Cc4ccc(C(F)(F)F)cc4)n3)CC2)cc(OC)c1OC [Compound B317]			IC50 [1]: 0.018 µM; IC50 [2]: 0.018 µM
O=C(c1ccccc1)N1CCN(Cc2nsc(NC[C@@H]3CCCN3Cc3ccc(Br)cc3)n2)CC1 [Compound B412]			IC50 [1]: 4.4 µM; IC50 [2]: 4.4 µM
COc1cc(C(=O)N2CCN(Cc3csc(NC[C@@H]4CCCN4Cc4cnc(C)s4)n3)CC2)cc(OC)c1OC [Compound A310]	26	26	
COc1cc(C(=O)N2CCN(Cc3csc(NC[C@@H]4CCCN4Cc4ccncn4)n3)CC2)cc(OC)c1OC [Compound A312]	> 50	> 50	
COc1cc(CN2CCN(Cc3csc(NCC4CCCN4C(C)c4ccc(Br)cc4)n3)CC2)cc(OC)c1OC (stereo not drawn) [Compound A602]	0.324	0.32	
COc1cc(C(=O)N2C[C@H](C)N(Cc3csc(NC[C@@H]4CCCN4Cc4ccc(Br)cc4)n3)C[C@@H]2C)cc(OC)c1OC [Compound A607]	0.096	0.096	
COc1cc(C(=O)N2CCN([C@@H](C)c3csc(NC[C@@H]4CCCN4Cc4ccc(Br)cc4)n3)CC2)cc(OC)c1OC [Compound A604]	0.215	0.22	
COc1cc(C(=O)N2CCN(Cc3nsc(NC[C@@H]4CCCN4Cc4ccc(Br)c(F)c4)n3)CC2)cc(OC)c1OC [Compound B319]			IC50 [1]: 0.015 µM; IC50 [2]: 0.015 µM
COc1cc(CN2CCN(Cc3csc(NCC4CCCN4C(=O)c4ccc(Br)cc4)n3)CC2)cc(OC)c1OC (stereo not drawn) [Compound A605]	> 50	> 50	
CCCCCC(=O)N1CCN(Cc2csc(NC[C@@H]3CCCN3CCCc3nc4ccccc4[nH]3)n2)CC1 [Compound 2678-32]			IC50 (Table 8, Run: Pure (70% Pure)): 7.9 µM
COc1cc(C(=O)N2CCN(Cc3csc(NC[C@@H]4CCCN4Cc4ccc(C5CC5)cc4)n3)CC2)cc(OC)c1OC [Compound A303]	9.1	9.1	
COc1cc(C(=O)N2CCN(Cc3csc(NC[C@@H]4CCCN4Cc4ccncc4)n3)CC2)cc(OC)c1OC [Compound A309]	10.4	10	
COc1cc(C(=O)N2CCN([C@@H](C)c3nsc(NC[C@@H]4CCCN4Cc4ccc(Br)cc4)n3)CC2)cc(OC)c1OC [Compound B806]			IC50 [1]: 0.012 µM; IC50 [2]: 0.012 µM
Cn1cnc2cc(C(=O)N3CCN(Cc4csc(NCC5CCCN5Cc5ccc(Br)cc5)n4)CC3)ccc21 (stereo not drawn) [Compound A406]	0.98	0.98	
COc1cc(C(=O)N2C[C@H](C)N(Cc3nsc(NC[C@@H]4CCCN4Cc4ccc(Br)cc4)n3)C[C@@H]2C)cc(OC)c1OC [Compound B804]			IC50 [1]: 0.021 µM; IC50 [2]: 0.021 µM
COc1cc(C(=O)N2CCN(Cc3cc(NC[C@@H]4CCCN4Cc4ccc(Br)cc4)sn3)CC2)cc(OC)c1OC [Compound B708]			IC50 [1]: 0.028 µM; IC50 [2]: 0.028 µM
COc1cc(CN2CCN(Cc3csc(NCC4CCCN4Cc4ccc(Br)cc4)n3)CC2)cc(OC)c1OC (stereo not drawn) [Compound A501]	0.74	0.74	
COc1cc(C(=O)N2CCN(Cc3csc(NC[C@@H]4CCCN4Cc4nnc(C)s4)n3)CC2)cc(OC)c1OC [Compound A311]	> 50	> 50	

The next lines start with results.

IC50 (Table 9) [µM]	IC50 (Table 9, same result in μM) [µM]	Compound	also measured
> 5	> 5	O=C(c1ccc(Cl)cc1)N1CCN(Cc2csc(NCC3CCCN3Cc3ccc(Br)cc3)n2)CC1 (stereo not drawn) [Compound B410]	
0.092	0.092	COc1cc(C(=O)N2CCN(Cc3csc(NC[C@@H]4CCCN4Cc4ccc(Br)c(F)c4)n3)CC2)cc(OC)c1OC [Compound B318]	
> 5	> 5	Cn1cc(C(=O)N2CCN(Cc3csc(NC[C@@H]4CCCN4Cc4ccc(Br)cc4)n3)CC2)ccc1=O [Compound B414]	
> 50	> 50	Cc1ccc(C(=O)N2CCN(Cc3csc(NC[C@@H]4CCCN4Cc4ccc(Br)cc4)n3)CC2)cc1 [Compound B408]	
